According to paper PMC10870114 (Clinical Cancer Research, 2023):

Experiment: Plasma pharmacokinetics on fraction day
Format: in vivo, human
Conditions: plasma, patients given peposertib

- Average exposure proportion compared with peposertib, AUC: < 25%
- Average exposure proportion compared with peposertib, Cmax: < 16%
SMILES: Oc1ccc(C(O)c2cc(-c3ncnc4cc(N5CCOCC5)ccc34)c(F)cc2Cl)nn1 (centres unmarked) [M467]
